Reference: patent publication US20120003270A1, “6-SUBSTITUTED ISOFLAVONOID COMPOUNDS AND USES THEREOF” (priority 2008, published 2012)

Experiments:
THP-1 cells = assay: Cytotoxicity in the THP-1 NFκB assay; assay type: cell-based, human; details: at active concentrations
RAW 264.7 = assay: Toxicity in RAW 264.7; assay type: cell-based, mouse
[1] = tested on: adjuvant-induced arthritis; assay: Rat adjuvant-induced arthritis model; assay type: in vivo
Procedure: Male Dark Agouti (DA) strain (DA.CD45.1) rats were fed with either compound (1)-treated feed or placebo-treated feed for seven days prior to the injection of Complete Freund's adjuvant (0.1 ml) into the base of the tail. The treated feeds were continued throughout the experiment. Arthritis, which became evident at Day 8 was subjectively scored each day by an operator blinded to the identity of treatments and using a scoring system as follows: • 0 (no evidence of arthritis); • 1 (1 or 2 red, swollen joints but no other swelling); • 2 (carpus or tarsus swollen or more than 2 small joints swollen); • 3 (some red swollen joints and carpus or tarsus swollen, but not global swelling); • 4 (severe global swelling of the entire paw). Therefore, the disease score for individual rats ranged between 0 and 16. Rats (n=8 per group) were killed on Day 12. Data were analysed using a two way ANOVA (Prism 4 for Windows, GraphPad Software Inc).

[2] = Free radical scavenging (DPPH); assay type: biochemical; details: DPPH 0.1 mM, 20 minutes, 517 nm; read-out: Free radical scavenging ability EC50
Procedure: The antioxidant (free radical trapping) activity of test compounds was assessed using the stable free radical compound 2,2-diphenyl-1-picrylhydrazyl (DPPH). A stock solution of DPPH was prepared at a concentration of 0.1 mM in ethanol and mixed for 10 minutes prior to use. Compound (1) was reacted with DPPH for 20 minutes, after which time the absorbance at 517 nm was determined. The change in absorbance at 517 nm was compared to a reagent blank (DPPH with ethanol alone). The IC50 value was estimated as the concentration of the test compound that caused a 0.6 change in absorbance (with 1.2 absorbance units representing total scavenging of the DPPH radical).

[3] = tested on: low density lipoprotein (LDL); assay: Cu2+-induced oxidation of LDL (FOX assay); assay type: biochemical; set-up: lipid peroxide formation: unit not given here
Procedure: Blood was collected by venipuncture and plasma separated by centrifugation. LDL was then isolated from plasma using a 4-step sodium chloride density gradient and ultracentrifuged at 200,000 g for 20 hours at 4° C. The collect LDL was purified by passage through gel filtration PD10 column to remove excess salt and EDTA, and stored in the dark at 4° C. to prevent auto-oxidation and used with two weeks of isolation. The LDL cholesterol content was measure using a standard enzymatic method and protein concentration determined by the Lowry method using BSA as the standard.
On the day of each experiment a 2 mL aliquot of LDL was passed through a second PD10 column and diluted with chelex treated PBS (100 mM) to give a standard protein concentration of 0.1 mg/mL, ie final concentration per reaction. Oxidation reactions were initiated by the addition of freshly prepared Cu^2+ solution, such that the final concentration of CuSO4 was 5 μM. […] The extent of lipoprotein oxidation was determined by measuring the formation of lipid-peroxides on aliquots removed every 30-minute over a 3-hour period. Peroxides were determined at each time point by the ferrous oxidation-xylenol orange (FOX) assay using standard hydrogen peroxide curve (5 to 200 μM). Compound (1) was examined in at least two separate experiments performed on separate days.

PGE2 = PGE2 synthesis in RA-stimulated U937 cells; assay type: cell-based, human; details: A23187 0.5 μM, 30 min
Procedure: U937 cells were thawed and resuspended in RPMI and 10% FCS at 2×10^5 cells per ml. The cells were incubated in 5% CO2 at 37° C. and expanded in growing culture to at least 6.4×10^7 total cells. The cells were then resuspended in fresh medium and cultured with 5 μM retinoic acid (RA) at 2×10^5 cells per ml for a further 3 days (72 h). RA treated cells were washed 2× in serum-free RPMI and resuspended in serum-free medium at 5×10^6 cells per ml. The cells were aliquotted into Teflon tubes at 1 ml per tube. Working stock solutions of compounds (1) and (3) were prepared at 0.1 mM, 1 mM and 10 mM as described above. For each working dilution, 10 μl was added to 1 ml cells to achieve a final concentration of 0 (DMSO alone), 1, 10, and 100 μM for each test compound. Cells were incubated in triplicate with each concentration of test compound for 15 min at 37° C. After 15 min pre-incubation, each 1 ml tube of cells received 5 μl of a […] solution of the calcium ionophore A23187 (to achieve 0.5 μM A23187). Incubation at 37° C. was continued for a further 30 min. After incubation, supernatants were collected by centrifugation at 2000 rpm for 10 min and stored at −20° C. until required for assay.

SMILES: CN(C)Cc1cc2c(cc1O)OCC(c1ccc(O)cc1)=C2 [Compound (1)]
- Cytotoxicity (THP-1 cells): absence of cytotoxicity
- Effect on the viability of RAW 264.7 cells (RAW 264.7): little effect on the viability
- IC50 (RAW 264.7; Mus musculus, RAW264.7): 53.9 ± 1.2 µM
- Joint score (mean ± SD) ([1]; Day 7, treated feed, score 0-16): 0
- Joint score (mean ± SD) ([1]; Day 8, placebo 0.38 ± 0.52): 0.5 ± 0.53
- Joint score (mean ± SD) ([1]; Day 9, placebo 4.75 ± 1.28): 3.25 ± 1.58
- Joint score (mean ± SD) ([1]; Day 10, placebo 7.75 ± 1.39): 6.25 ± 1.49
- Joint score (mean ± SD) ([1]; Day 11, placebo 11.75 ± 1.04): 9.25 ± 1.28
- Joint score (mean ± SD) ([1]; Day 12, placebo 14.13 ± 1.46): 12.75 ± 2.92
- Arthritis score compared with placebo feed (in words) ([1]; two way ANOVA): statistically significant (p=0.008) reduction in arthritis score
- EC50 [2]: 18.8 µM
- lipid peroxide formation ([3]; Compound (1) 100 μM + Cu++ 5 μM, no LDL, 0 min): 10.13 ± 2.82
- lipid peroxide formation ([3]; Compound (1) 100 μM + Cu++ 5 μM, no LDL, 30 min): 32.09 ± 11.15
- lipid peroxide formation ([3]; Compound (1) 100 μM + Cu++ 5 μM, no LDL, 60 min): 46.21 ± 20.68
- lipid peroxide formation ([3]; Compound (1) 100 μM + Cu++ 5 μM, no LDL, 90 min): 58.19 ± 28.98
- lipid peroxide formation ([3]; Compound (1) 100 μM + Cu++ 5 μM, no LDL, 120 min): 69.46 ± 35.33
- lipid peroxide formation ([3]; Compound (1) 100 μM + Cu++ 5 μM, no LDL, 180 min): 76.60 ± 40.17
- IC50 ([3]; LDL 0.1 mg/mL, CuSO4 5 μM, read-out: IC50, concentration at which 50% of the LDL oxidation was inhibited): 0.58 µM
- lipid peroxide formation ([3]; LDL 0.1 mg/ml + compound (1) 0.1 μM + Cu++ 5 μM, 0 min): 11.54 ± 1.96
- lipid peroxide formation ([3]; LDL 0.1 mg/ml + compound (1) 0.1 μM + Cu++ 5 μM, 30 min): 14.50 ± 0.28
- lipid peroxide formation ([3]; LDL 0.1 mg/ml + compound (1) 0.1 μM + Cu++ 5 μM, 60 min): 26.86 ± 0.65
- lipid peroxide formation ([3]; LDL 0.1 mg/ml + compound (1) 0.1 μM + Cu++ 5 μM, 90 min): 89.43 ± 17.03
- lipid peroxide formation ([3]; LDL 0.1 mg/ml + compound (1) 0.1 μM + Cu++ 5 μM, 120 min): 161.78 ± 1.44
- lipid peroxide formation ([3]; LDL 0.1 mg/ml + compound (1) 0.1 μM + Cu++ 5 μM, 180 min): 193.20 ± 25.05
- lipid peroxide formation ([3]; LDL 0.1 mg/ml + compound (1) 1.0 μM + Cu++ 5 μM, 0 min): 11.31 ± 1.95
- lipid peroxide formation ([3]; LDL 0.1 mg/ml + compound (1) 1.0 μM + Cu++ 5 μM, 30 min): 12.83 ± 2.28
- lipid peroxide formation ([3]; LDL 0.1 mg/ml + compound (1) 1.0 μM + Cu++ 5 μM, 60 min): 13.11 ± 2.70
- lipid peroxide formation ([3]; LDL 0.1 mg/ml + compound (1) 1.0 μM + Cu++ 5 μM, 90 min): 14.78 ± 1.06
- lipid peroxide formation ([3]; LDL 0.1 mg/ml + compound (1) 1.0 μM + Cu++ 5 μM, 120 min): 20.39 ± 2.95
- lipid peroxide formation ([3]; LDL 0.1 mg/ml + compound (1) 1.0 μM + Cu++ 5 μM, 180 min): 102.30 ± 37.30
- lipid peroxide formation ([3]; LDL 0.1 mg/ml + compound (1) 10 μM + Cu++ 5 μM, 0 min): 11.54 ± 1.96
- lipid peroxide formation ([3]; LDL 0.1 mg/ml + compound (1) 10 μM + Cu++ 5 μM, 30 min): 16.77 ± 2.55
- lipid peroxide formation ([3]; LDL 0.1 mg/ml + compound (1) 10 μM + Cu++ 5 μM, 60 min): 19.56 ± 4.55
- lipid peroxide formation ([3]; LDL 0.1 mg/ml + compound (1) 10 μM + Cu++ 5 μM, 90 min): 20.84 ± 5.30
- lipid peroxide formation ([3]; LDL 0.1 mg/ml + compound (1) 10 μM + Cu++ 5 μM, 120 min): 22.80 ± 3.39
- lipid peroxide formation ([3]; LDL 0.1 mg/ml + compound (1) 10 μM + Cu++ 5 μM, 180 min): 20.30 ± 4.97
- lipid peroxide formation ([3]; LDL 0.1 mg/ml + compound (1) 100 μM + Cu++ 5 μM, 0 min): 13.83 ± 1.77
- lipid peroxide formation ([3]; LDL 0.1 mg/ml + compound (1) 100 μM + Cu++ 5 μM, 30 min): 29.71 ± 6.85
- lipid peroxide formation ([3]; LDL 0.1 mg/ml + compound (1) 100 μM + Cu++ 5 μM, 60 min): 39.57 ± 10.67
- lipid peroxide formation ([3]; LDL 0.1 mg/ml + compound (1) 100 μM + Cu++ 5 μM, 90 min): 78.85 ± 33.54
- lipid peroxide formation ([3]; LDL 0.1 mg/ml + compound (1) 100 μM + Cu++ 5 μM, 120 min): 54.24 ± 9.58
- lipid peroxide formation ([3]; LDL 0.1 mg/ml + compound (1) 100 μM + Cu++ 5 μM, 180 min): 62.50 ± 19.58
- PGE2 (PGE2; 1 μM): 1.485 ± 0.175 pg
- PGE2 (PGE2; 10 μM): 1.58 ± 0.145 pg
- PGE2 (PGE2; 100 μM): 0.881 ± 0.116 pg
